Measurements: publication PMC11381307 (Frontiers in Pharmacology, 2024)

Assays:
[1] = target: T1, OAT3 (Homo sapiens, UniProt Q8TCC7); experiment: Inhibitory effect of seven drugs on OAT3-mediated ES uptake; assay type: cell-based; design: host or cells: HEK293; conditions: 50 μM or 50 μg/mL; N = 2
T1 sequence (Q8TCC7 1-542): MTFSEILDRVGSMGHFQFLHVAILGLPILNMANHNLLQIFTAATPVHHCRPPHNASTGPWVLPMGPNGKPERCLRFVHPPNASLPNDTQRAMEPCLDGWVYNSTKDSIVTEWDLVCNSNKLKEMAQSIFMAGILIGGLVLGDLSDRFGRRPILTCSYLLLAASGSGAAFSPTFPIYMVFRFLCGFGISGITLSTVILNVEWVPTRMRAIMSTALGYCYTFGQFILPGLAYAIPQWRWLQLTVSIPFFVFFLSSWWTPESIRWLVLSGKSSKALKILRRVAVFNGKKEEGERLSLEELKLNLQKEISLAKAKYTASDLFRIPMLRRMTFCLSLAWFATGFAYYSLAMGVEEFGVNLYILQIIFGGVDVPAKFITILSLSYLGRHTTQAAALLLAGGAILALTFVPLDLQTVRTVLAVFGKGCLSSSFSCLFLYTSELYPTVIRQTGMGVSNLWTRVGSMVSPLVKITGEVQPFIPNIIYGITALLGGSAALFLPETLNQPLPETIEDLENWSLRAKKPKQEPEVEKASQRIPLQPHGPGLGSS
Protocol: (§1) Note: the peak area of probe substrate transported by MRP2, OAT3, OATP1B1 or OATP1B3 was determined by LC-MS method. Then, the relative uptake rate of probe substrate in the presence of seven drugs was calculated by using equation 7 or 11. When the relative uptake rate was decreased by more than 50%, indicating the potential inhibitory of drug on the transporter.

[2] = target: MRP2 (Homo sapiens, UniProt Q92887); experiment: Inhibitory effect of seven drugs on MRP2-mediated E217βG uptake (vesicles); assay type: biochemical; design: purchased GenoMembrane (Tokyo, Japan) Product No. 0001; conditions: 50 μM or 50 μg/mL; N = 2
MRP2, sequence (Q92887 whole entry): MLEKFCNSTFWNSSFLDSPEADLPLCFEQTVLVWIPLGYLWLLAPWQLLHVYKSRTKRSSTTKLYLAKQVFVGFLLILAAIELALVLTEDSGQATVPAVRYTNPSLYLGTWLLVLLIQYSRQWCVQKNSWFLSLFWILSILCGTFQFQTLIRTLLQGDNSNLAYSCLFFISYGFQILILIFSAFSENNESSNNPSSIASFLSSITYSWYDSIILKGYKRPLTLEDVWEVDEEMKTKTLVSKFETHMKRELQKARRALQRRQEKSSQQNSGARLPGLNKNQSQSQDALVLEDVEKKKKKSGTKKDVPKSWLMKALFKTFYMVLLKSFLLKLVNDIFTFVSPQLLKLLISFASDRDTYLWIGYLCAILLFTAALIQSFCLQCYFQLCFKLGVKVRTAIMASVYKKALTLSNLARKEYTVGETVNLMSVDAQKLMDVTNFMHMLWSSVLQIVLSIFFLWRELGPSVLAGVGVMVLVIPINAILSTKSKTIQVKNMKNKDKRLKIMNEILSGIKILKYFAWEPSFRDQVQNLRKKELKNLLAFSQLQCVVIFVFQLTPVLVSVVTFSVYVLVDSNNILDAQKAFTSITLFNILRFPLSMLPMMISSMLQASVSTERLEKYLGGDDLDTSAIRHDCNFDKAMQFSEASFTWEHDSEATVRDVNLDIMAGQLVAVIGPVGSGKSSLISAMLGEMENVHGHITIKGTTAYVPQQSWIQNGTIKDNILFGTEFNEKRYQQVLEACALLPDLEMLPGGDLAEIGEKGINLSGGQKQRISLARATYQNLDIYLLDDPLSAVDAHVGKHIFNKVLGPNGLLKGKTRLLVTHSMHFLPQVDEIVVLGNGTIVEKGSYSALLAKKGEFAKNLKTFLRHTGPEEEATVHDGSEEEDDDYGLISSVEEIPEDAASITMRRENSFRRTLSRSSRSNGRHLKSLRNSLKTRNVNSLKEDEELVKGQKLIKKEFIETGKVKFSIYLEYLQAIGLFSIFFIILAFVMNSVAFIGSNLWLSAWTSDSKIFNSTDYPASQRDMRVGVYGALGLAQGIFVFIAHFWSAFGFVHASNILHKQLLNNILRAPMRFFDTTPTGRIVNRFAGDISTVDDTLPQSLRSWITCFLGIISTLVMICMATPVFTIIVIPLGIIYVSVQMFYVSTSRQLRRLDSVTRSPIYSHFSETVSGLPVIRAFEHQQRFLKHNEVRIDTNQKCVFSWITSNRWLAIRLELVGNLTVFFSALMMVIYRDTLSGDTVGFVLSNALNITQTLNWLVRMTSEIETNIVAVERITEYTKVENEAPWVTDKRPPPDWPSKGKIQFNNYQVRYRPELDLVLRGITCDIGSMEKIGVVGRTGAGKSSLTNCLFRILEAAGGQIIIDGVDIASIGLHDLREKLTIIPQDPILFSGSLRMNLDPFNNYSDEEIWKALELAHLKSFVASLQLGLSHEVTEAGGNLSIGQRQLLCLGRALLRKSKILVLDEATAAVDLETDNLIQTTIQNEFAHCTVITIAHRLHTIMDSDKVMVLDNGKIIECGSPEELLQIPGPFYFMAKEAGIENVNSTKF
Protocol: Briefly, 10 μL of vesicle membranes and 5 μL of Reagent G were mixed and pre-incubated with 10 μL of the compounds or Buffer A2 (used as no compound-treatment control [NC]) at 37°C for 5 min. […] The two mixtures were mixed before the incubation and then incubated for an additional 5 min. […]
Regarding the inhibition assay, the methods used to calculate the transported activity and UR were similar to those used for the substrate assay. However, please refer to the SLC inhibition assay for the equations for calculating the UR percentages relative to the NC and IC50 values of compounds on MRP2 activity and MRP2-mediated MPAG transport.
as §1

[3] = target: T2, OATP1B3 (Homo sapiens, UniProt Q9NPD5); experiment: Inhibitory effect of seven drugs on OATP1B3-mediated E217βG uptake; assay type: cell-based; conditions: 50 μM or 50 μg/mL; N = 2
T2 construct: host or cells: HEK293
T2 sequence (Q9NPD5 1-702): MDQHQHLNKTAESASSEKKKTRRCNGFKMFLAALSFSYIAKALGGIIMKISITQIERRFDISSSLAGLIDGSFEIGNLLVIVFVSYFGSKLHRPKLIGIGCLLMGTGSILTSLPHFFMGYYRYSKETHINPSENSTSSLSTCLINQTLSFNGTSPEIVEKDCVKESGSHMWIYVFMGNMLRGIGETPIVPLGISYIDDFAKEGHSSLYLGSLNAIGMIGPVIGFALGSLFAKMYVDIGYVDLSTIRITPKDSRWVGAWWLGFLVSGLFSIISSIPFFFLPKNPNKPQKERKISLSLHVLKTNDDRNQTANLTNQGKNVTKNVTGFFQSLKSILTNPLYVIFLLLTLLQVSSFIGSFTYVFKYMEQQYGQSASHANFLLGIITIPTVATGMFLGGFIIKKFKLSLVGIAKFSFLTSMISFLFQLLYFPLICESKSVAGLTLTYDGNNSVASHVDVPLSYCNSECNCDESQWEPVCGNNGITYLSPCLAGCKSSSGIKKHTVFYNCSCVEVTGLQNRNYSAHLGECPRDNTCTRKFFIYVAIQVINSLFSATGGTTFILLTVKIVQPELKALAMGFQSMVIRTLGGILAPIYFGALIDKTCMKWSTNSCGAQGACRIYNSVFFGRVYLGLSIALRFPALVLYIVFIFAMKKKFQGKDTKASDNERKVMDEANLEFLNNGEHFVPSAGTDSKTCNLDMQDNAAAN
Protocol: as §1

[4] = target: T3, OATP1B1 (Homo sapiens, UniProt Q9Y6L6); experiment: Inhibitory effect of seven drugs on OATP1B1-mediated E217βG uptake; assay type: cell-based; conditions: 50 μM or 50 μg/mL; N = 2
T3 construct: host or cells: HEK293
T3 sequence (Q9Y6L6 1-691): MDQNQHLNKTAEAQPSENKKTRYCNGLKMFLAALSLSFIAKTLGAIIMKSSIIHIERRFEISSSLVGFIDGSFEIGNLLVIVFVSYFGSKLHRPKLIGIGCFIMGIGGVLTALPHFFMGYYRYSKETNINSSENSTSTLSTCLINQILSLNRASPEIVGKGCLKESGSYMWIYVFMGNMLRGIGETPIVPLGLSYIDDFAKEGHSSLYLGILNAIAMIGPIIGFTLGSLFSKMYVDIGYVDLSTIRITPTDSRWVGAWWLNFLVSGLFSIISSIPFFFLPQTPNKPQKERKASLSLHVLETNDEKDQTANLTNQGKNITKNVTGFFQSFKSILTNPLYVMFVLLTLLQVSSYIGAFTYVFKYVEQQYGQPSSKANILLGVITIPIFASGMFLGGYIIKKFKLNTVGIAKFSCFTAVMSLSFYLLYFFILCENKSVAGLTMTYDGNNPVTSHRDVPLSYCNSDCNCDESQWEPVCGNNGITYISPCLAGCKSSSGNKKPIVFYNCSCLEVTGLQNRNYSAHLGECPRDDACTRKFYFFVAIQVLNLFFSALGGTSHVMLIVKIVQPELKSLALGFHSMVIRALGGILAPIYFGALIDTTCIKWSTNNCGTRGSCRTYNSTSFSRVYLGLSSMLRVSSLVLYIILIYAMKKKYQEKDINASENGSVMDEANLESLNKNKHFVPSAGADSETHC
Protocol: as §1

[5] = target: T1, OAT3; experiment: Transporter substrate study using HEK293-OAT3 cells; conditions: for uptake ratio (UR) mediated by OAT3: 10 μM
[6] = cited from earlier work
[7] = target: T4, human OAT1 (Homo sapiens, UniProt Q4U2R8)
T4 sequence (Q4U2R8 1-563): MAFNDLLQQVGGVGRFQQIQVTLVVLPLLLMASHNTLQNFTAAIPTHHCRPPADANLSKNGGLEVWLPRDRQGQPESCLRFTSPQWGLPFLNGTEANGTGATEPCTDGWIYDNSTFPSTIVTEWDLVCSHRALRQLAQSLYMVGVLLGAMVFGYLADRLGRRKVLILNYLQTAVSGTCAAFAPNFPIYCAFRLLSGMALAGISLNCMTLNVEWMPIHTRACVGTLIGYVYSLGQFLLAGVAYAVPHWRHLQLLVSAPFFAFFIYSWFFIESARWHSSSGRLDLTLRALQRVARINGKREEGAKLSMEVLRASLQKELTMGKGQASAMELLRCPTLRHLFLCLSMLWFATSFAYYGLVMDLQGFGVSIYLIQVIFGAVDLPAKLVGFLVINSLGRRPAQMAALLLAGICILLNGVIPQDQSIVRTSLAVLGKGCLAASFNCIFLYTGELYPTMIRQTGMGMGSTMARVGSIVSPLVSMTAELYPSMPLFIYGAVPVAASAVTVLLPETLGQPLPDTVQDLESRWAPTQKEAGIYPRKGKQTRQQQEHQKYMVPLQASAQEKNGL

[8] = system: UGT; experiment: Human hepatocyte UGT induction study, conversion of MPA to MPAG; assay type: cell-based; conditions: for formation of MPAG, % of NC (Mean): 96 h treatment
Protocol: Cryopreserved human hepatocytes were recovered in a pre-warmed incubation medium, diluted to a viable cell density (∼0.7 × 10^6 cells/mL) using a plating medium, followed by the addition of 100 μL hepatocytes into each well of a collagen I-coated 96-well plate. The cell monolayer was formed after an overnight incubation period at 37°C under 5%CO2. The plating medium was then replaced with an incubation medium for further culture. On the second day, an incubation medium containing different concentrations of either compound, the inducer omeprazole (final concentration of 50 μM), or vehicle (0.1% [v/v] dimethyl sulfoxide [DMSO]). […] At the end of the incubation period, the medium was replaced with a substrate for UGT and MPA. Following a further incubation of 15 or 30 min at 37°C under 5% CO2, 100 μL of the reaction medium was transferred to 400 μL of ice-cold methanol containing internal standard (IS) to terminate the reaction. Finally, the supernatant was collected after centrifugation at 4,000 rpm for 10 min and analyzed for glucuronide formation using liquid chromatography-mass spectrometry (LC-MS).
The formation of glucuronide metabolites, as determined with LC-MS, was used to calculate the formation rate linked to enzyme activity according to Equation 1. Formation rate pmol/10^6 cells/min=amount of glucuronide metabolites formation pmol/number of cells 10^6 cells×incubation time min (1)
The percentage of enzyme activity relative to the NC (%) was determined using Equation 2. Relative enzyme activity % of NC=formation rate in the compound−treated group/that in NC×100 (2)

[9] = criterion UR ≥2.0 and inhibition ≥50%

SMILES: CCCCC[C@H](O)/C=C/[C@H]1[C@H](O)CC(=O)[C@@H]1CCCCCCC(=O)O [Alprostadil, alprostadil]
- Relative net uptake rate (% of NC), Mean, OAT3-mediated ES uptake [1]: 52.6 % of NC
- Relative net uptake rate (% of NC), Mean, MRP2-mediated E217βG uptake [2]: 137 % of NC
- Relative net uptake rate (% of NC), Mean, OATP1B3-mediated E217βG uptake [3]: 59.6 % of NC
- Relative net uptake rate (% of NC), Mean, OATP1B1-mediated E217βG uptake [4]: 33.6 % of NC

SMILES: CCN1CCN(C(=O)N[C@@H](C(=O)N[C@@H]2C(=O)N3C(C(=O)O)=C(CSc4nnnn4C)CS[C@H]23)c2ccc(O)cc2)C(=O)C1=O [Cefoperzone, cefoperazone]
- Relative net uptake rate (% of NC), Mean, MRP2-mediated E217βG uptake [2]: 104 % of NC
- Relative net uptake rate (% of NC), Mean, OATP1B3-mediated E217βG uptake [3]: 67.5 % of NC
- Relative net uptake rate (% of NC), Mean, OATP1B1-mediated E217βG uptake [4]: 168 % of NC

SMILES: C[C@]12CC[C@@H]3c4ccc(OS(=O)(=O)O)cc4CC[C@H]3[C@@H]1CCC2=O [ES, estrone-3-sulfate]
- uptake ratio (UR) of probe substrate mediated by OAT3 ([5]; after probenecid treatment): 3.26
- uptake ratio (UR) of probe substrate mediated by OAT3 ([5]; without inhibitor): 7.37

SMILES: COc1c(C)c2c(c(O)c1C/C=C(\C)CCC(=O)OCCN1CCOCC1)C(=O)OC2 [MMF, mycophenolate mofetil]
- fraction of the absorbed drug eliminated in the urine ([6]; ref van Schaik et al., 2009): approximately 87%

SMILES: COc1c(C)c2c(c(O)c1C/C=C(\C)CCC(=O)O)C(=O)OC2 [MPA, mycophenolic acid]
- exposure lower in the early phase after transplantation than in the stable period ([6]; similar dose of MMF, ref Shaw et al., 2003): 30%–50%

SMILES: COc1c(C)c2c(c(O[C@@H]3O[C@H](C(=O)O)[C@@H](O)[C@H](O)[C@H]3O)c1C/C=C(\C)CCC(=O)O)C(=O)OC2 [MPAG, 7-O-mycophenolic acid glucuronide]
- uptake ratio (UR) mediated by OAT3 ([5]; following incubation with probenecid): 1.19
- uptake ratio (UR) mediated by OAT3 ([5]; without inhibitor): 2.47
- substrate of OAT3 (in words) [5, 9]: weak substrate for OAT3
- uptake ratio (UR) mediated by OAT1 ([7]; 0.5, 1, and 10 μM): less than 2.0
- substrate of OAT1 (in words) [7, 9]: not a substrate of OAT1

SMILES: C[C@@H](O)[C@H]1C(=O)N2C(C(=O)O)=C(S[C@@H]3CN[C@H](C(=O)N(C)C)C3)[C@H](C)[C@H]12 [Meropenem, meropenem]
- Relative net uptake rate (% of NC), Mean, OAT3-mediated ES uptake [1]: 26.6 % of NC
- Relative net uptake rate (% of NC), Mean, MRP2-mediated E217βG uptake [2]: 137 % of NC
- Relative net uptake rate (% of NC), Mean, OATP1B3-mediated E217βG uptake [3]: 69.9 % of NC
- Relative net uptake rate (% of NC), Mean, OATP1B1-mediated E217βG uptake [4]: 95.9 % of NC

SMILES: O=C(c1cc(Cc2n[nH]c(=O)c3ccccc23)ccc1F)N1CCN(C(=O)C2CC2)CC1 [Olaparib, olaparib]
- Relative net uptake rate (% of NC), Mean, OAT3-mediated ES uptake [1]: 70.2 % of NC
- Relative net uptake rate (% of NC), Mean, MRP2-mediated E217βG uptake [2]: 136 % of NC
- Relative net uptake rate (% of NC), Mean, OATP1B3-mediated E217βG uptake [3]: 72.4 % of NC
- Relative net uptake rate (% of NC), Mean, OATP1B1-mediated E217βG uptake [4]: 99.3 % of NC

SMILES: COc1ccnc(C[S+]([O-])c2nc3ccc(OC(F)F)cc3[nH]2)c1OC (stereo not shown) [Pantoprazole, pantoprazole]
- Relative net uptake rate (% of NC), Mean, OAT3-mediated ES uptake [1]: 87.2 % of NC
- Relative net uptake rate (% of NC), Mean, MRP2-mediated E217βG uptake [2]: 134 % of NC
- Relative net uptake rate (% of NC), Mean, OATP1B3-mediated E217βG uptake [3]: 67.7 % of NC
- Relative net uptake rate (% of NC), Mean, OATP1B1-mediated E217βG uptake [4]: 115 % of NC

SMILES: C[C@]12C=CC(=O)C=C1CC[C@@H]1[C@@H]2[C@@H](O)C[C@@]2(C)[C@H]1CC[C@]2(O)C(=O)CO [prednisolone]
- formation of MPAG, % of NC (Mean) ([8]; 0.5 μM): 101 % of NC
- formation of MPAG, % of NC (Mean) ([8]; 1 μM): 114 % of NC
- formation of MPAG, % of NC (Mean) ([8]; 5 μM): 106 % of NC
- formation of MPAG, % of NC (Mean) ([8]; 10 μM): 101 % of NC
- formation of MPAG, % of NC (Mean) ([8]; 50 μM): 126 % of NC
- formation of MPAG, % of NC (Mean) ([8]; 100 μM): 129 % of NC
- change in MPAG formation from MPA (in words) ([8]; 96 h incubation of human hepatocytes): slight increase

SMILES: CCCN(CCC)S(=O)(=O)c1ccc(C(=O)O)cc1 [probenecid]
- reduction of OAT3-mediated MPAG uptake ([5]; 10 μM MPAG): 90.8%
- reduction of OAT3-mediated ES uptake ([5]; probe substrate ES): 69.4%
